Data published in publication PMC11783601, “Analogue-Sensitive Inhibition of Histone Demethylases Uncovers Member-Specific Function in Ribosomal Protein Synthesis” (Journal of the American Chemical Society, 2025).
Entries after “also recorded” stand apart in the source; their conditions may differ.

Experiments:
[1] = target: T1, ALKBH2 (Homo sapiens, UniProt Q6NS38); test: Dot blot-based assay for ALKBH2 on genomic DNA; type: biochemical; details: genomic DNA from HEK293T cells, 6 (µM): 100
T1 construct: we recombinantly expressed the catalytic domains of 12 wild type dioxygenases; 6xHis (N); made in house; host or cells: E. coli BL21 (DE3)
T1 sequence (Q6NS38 152-257 limits assumed): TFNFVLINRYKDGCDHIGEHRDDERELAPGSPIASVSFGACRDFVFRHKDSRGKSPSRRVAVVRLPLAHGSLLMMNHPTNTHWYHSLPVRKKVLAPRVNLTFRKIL

[2] = target: T2, full-length wild type KDM4A (Homo sapiens, UniProt O75164); test: H3K9me3 Western blot of nuclear extracts of transfected HEK293T cells; type: cell-based; details: 10 μM n-octyl IOX1, Western blot
T2 construct: Expression of full-length KDM4A-E and their mutants in HEK293T cells; host or cells: HEK293T
T2 sequence (O75164 whole entry): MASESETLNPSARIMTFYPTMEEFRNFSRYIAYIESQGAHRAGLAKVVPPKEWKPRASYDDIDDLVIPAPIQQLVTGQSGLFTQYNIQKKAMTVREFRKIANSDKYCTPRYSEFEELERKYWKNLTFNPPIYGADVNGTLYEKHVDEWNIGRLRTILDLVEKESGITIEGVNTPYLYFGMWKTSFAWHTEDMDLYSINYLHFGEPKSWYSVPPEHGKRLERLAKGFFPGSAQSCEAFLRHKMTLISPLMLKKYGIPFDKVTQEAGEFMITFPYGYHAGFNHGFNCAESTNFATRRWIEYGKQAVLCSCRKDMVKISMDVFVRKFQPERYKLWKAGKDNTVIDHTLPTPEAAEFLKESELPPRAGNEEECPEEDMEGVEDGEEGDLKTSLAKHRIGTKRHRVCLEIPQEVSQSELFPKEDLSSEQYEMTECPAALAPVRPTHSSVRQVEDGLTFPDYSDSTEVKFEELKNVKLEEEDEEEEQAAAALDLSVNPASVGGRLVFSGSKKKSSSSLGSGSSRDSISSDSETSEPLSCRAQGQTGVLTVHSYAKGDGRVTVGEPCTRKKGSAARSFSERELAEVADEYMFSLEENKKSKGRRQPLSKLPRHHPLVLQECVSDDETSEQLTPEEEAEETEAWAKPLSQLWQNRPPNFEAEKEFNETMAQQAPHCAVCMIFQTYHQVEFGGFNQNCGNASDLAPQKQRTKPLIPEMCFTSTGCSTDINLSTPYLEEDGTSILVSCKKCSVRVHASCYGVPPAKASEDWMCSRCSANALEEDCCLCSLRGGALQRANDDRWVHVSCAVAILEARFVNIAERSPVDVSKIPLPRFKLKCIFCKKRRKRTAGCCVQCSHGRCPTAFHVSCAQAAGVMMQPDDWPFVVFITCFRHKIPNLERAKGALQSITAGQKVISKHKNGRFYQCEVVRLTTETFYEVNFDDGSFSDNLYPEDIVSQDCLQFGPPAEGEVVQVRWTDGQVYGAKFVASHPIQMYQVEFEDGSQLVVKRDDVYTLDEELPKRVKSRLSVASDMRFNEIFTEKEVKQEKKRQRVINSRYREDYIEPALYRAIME
Protocol: To test the orthogonality of NOL toward wild type KDM4A, HEK293T cells, either nontransfected or transfected with KDM4A, were individually treated with DMSO, 400 μM 6A or 10 μM n-octyl IOX1, a nonspecific inhibitor of 2OG enzymes. […] To further probe for off-target effects of 6 on endogenous 2OG enzymes, HEK293T cells were cultured with DMSO or 400 μM 6A and examined for several postsynthetic modifications catalyzed by these dioxygenases. Key trimethylated lysine marks on extracted histone were analyzed by Western blot using corresponding antibodies (Figure S31). […] Similarly, no change in prolyl hydroxylation was detected when cellular extracts were subjected to the pan hydroxyproline antibody.
KDM4A mammalian expression plasmid in CMV vector was purchased from Addgene (plasmid #24180). KDM4B mammalian expression plasmid in CMV vector was purchased from Addgene (plasmid #24181). KDM4C mammalian expression plasmid in CMV vector was purchased from Addgene (plasmid #24214). KDM4D mammalian expression plasmid in pReciever vector was purchased from Genecopoia (EX-Z0917-M06.) KDME mammalian expression plasmid in pRP-EXP was designed from Vector Builder. […]
20. Quantification of fixed-cell imaging data
TIF images obtained from confocal microscopy experiments were quantified in ImageJ. […]

[3] = target: T3, full-length wild type KDM4C (Homo sapiens, UniProt Q9H3R0); test: as above; type: cell-based
T3 construct: HEK293T cells were transfected with full-length wild type KDM4B-E or their respective mutants; host or cells: HEK293T
T3 sequence (Q9H3R0 whole entry): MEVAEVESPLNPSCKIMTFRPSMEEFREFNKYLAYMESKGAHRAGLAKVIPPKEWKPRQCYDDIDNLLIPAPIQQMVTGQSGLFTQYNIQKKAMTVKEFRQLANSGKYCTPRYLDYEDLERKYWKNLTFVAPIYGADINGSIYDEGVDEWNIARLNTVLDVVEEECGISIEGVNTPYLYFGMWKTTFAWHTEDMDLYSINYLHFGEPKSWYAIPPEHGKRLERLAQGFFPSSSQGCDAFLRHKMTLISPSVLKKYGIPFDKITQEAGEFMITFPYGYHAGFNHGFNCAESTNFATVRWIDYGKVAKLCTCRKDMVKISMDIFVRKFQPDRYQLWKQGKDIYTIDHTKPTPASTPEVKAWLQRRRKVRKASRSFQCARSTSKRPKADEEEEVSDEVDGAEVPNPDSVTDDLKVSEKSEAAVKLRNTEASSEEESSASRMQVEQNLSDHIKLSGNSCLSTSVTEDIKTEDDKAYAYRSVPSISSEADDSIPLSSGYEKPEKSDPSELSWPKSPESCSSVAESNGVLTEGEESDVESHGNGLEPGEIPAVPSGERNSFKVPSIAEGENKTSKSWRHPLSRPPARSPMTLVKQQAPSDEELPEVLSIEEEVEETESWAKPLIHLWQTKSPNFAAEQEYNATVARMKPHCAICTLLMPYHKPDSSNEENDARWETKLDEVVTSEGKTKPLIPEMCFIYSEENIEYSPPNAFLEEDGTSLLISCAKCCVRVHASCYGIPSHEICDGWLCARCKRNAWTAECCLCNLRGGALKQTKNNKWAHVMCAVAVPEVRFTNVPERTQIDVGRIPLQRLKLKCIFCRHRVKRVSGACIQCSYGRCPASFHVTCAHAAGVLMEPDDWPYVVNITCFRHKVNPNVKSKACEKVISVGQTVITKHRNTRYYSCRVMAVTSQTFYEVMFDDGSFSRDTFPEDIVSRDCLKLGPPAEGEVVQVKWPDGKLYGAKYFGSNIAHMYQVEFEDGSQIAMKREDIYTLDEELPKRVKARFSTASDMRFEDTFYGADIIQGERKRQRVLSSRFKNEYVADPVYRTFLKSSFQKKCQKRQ
Source text: (§1) KDM4B and C are structurally homologous to KDM4A, and KDM4D and E have a catalytic pocket near-identical to that of KDM4A but lack the Tudor and PHD domains known to bind trimethylated lysine in histones (Figure 1B).[11] HEK293T cells were transfected with full-length wild type KDM4B-E or their respective mutants. Western blot analysis of nuclear preparations using the H3K9me3 antibody confirmed all of the proteins to be catalytically active (Figures 4G–N and S32–S35).
(§2) KDM4A mammalian expression plasmid in CMV vector was purchased from Addgene (plasmid #24180). KDM4B mammalian expression plasmid in CMV vector was purchased from Addgene (plasmid #24181). KDM4C mammalian expression plasmid in CMV vector was purchased from Addgene (plasmid #24214). KDM4D mammalian expression plasmid in pReciever vector was purchased from Genecopoia (EX-Z0917-M06.) KDME mammalian expression plasmid in pRP-EXP was designed from Vector Builder. The KDM4A-F185A, KDM4B-F186A, KDM4C -F187A, KDM4D-F189A, and KDM4E F186A mutants were generated using Quikchange Lightening Mutagenesis Kit (Agilent) according to manufacturer’s protocol and confirmed by Sanger […]
(§3) HEK293T/17 cells (ATCC) were grown in Delbucco’s Modified Eagle Medium (DMEM) (Corning) with 10% FBS at 37 °C (Corning), 5% CO2, and 95% relative humidity in a 6-well cell culture plate. When cells reached 90% confluency, 3 µg of plasmid and 6 µg lipofectamine 2000 (Invitrogen: 11668019) were incubated with 100 µL OptiMem. After 5 minutes the plasmid and lipofectamine were combined and incubated at room temperature for 20 minutes and added to the cell culture disk. Cells were returned to the incubator to grow for 4-6 hours. This was followed by treatment of compound treatment (n-octyl IOX121,22 or a specific NOG ester) at indicated concentrations and further culture for specified time. The media was removed, and cells were washed with ice cold PBS (Corning), then trypsinized with TrpLE Express (Gibco). The trypsinization reaction was quenched with DMEM 10% FBS and cells were pelleted then washed once with ice cold PBS. The nuclear extracts were generated by first resuspending the cell pellets in 700 µL nuclear isolation buffer (15 mM Tris pH 7.5, 60 mM KCl, 15 mM NaCl, 5 mM MgCl2, 1 mM CaCl2, 1mm DTT, 2 mM Na3Van, 250 mM sucrose, 1X Pierce protease inhibitor (Thermo Fisher #PIA32955), 1 mM PMSF, 0.3% NP40 diluted to volume with MilliQ H2O) and incubated on ice for 5 minutes.23 The samples were then pelleted by centrifugation at 2000 rcf for 5 minutes.
(§4) The supernatant was removed, and the pelleted nuclei were resuspended in 200 µL Pierce IP lysis buffer (Thermo Fisher #87787) containing 1X Pierce protease inhibitor and left on ice for 5 minutes. The nuclei were then sonicated at 100% amp for 5 minutes (pulsed 1 minute “on”, 20 seconds “rest”) using a Qsonica-Q700, cuphorn sonicator. The samples were pelleted once again at 2000 rcf for 5 minutes and the supernatant containing the nuclear extracts were collected. MgCl2 (1M) solution was added to each sample give a final concentration of 6mM. […]
(§5) Prism with the corresponding bars representing the mean and standard deviation of the population.
(§6) For the time dependent imaging, cells containing the transfected KDM4A mutant were identified by their HA signal. These cells were used to create a selection which was then imposed onto the respective H3K9me3 or BrdU images. The mean signal was then measured for H3K9me3 or BrdU only within the cells expressing the KDM4A mutant. To compare changes in H3K9me3 or BrdU between trials, the quantification values were normalized to the mean signal at t=0. The normalized, mean signal and error for H3K9me3 or BrdU were then plotted in GraphPad Prism.
(§7) 21. General protocol for Western blotting
(§8) Assay samples were mixed with appropriate volume of 4X Laemmli Dye (Bio-Rad), heated at 95 °C for 5 minutes and loaded onto 4–12% Criterion™ XT Bis-Tris protein gels (Bio-Rad #3450123) or in-house prepared SDS-polyacrylamide gel and subjected to electrophoresis […]

[4] = target: T4, full-length wild type KDM4E (Homo sapiens, UniProt B2RXH2); test: as above; type: cell-based
T4 construct: HEK293T cells were transfected with full-length wild type KDM4B-E or their respective mutants; host or cells: HEK293T
T4 sequence (B2RXH2 whole entry): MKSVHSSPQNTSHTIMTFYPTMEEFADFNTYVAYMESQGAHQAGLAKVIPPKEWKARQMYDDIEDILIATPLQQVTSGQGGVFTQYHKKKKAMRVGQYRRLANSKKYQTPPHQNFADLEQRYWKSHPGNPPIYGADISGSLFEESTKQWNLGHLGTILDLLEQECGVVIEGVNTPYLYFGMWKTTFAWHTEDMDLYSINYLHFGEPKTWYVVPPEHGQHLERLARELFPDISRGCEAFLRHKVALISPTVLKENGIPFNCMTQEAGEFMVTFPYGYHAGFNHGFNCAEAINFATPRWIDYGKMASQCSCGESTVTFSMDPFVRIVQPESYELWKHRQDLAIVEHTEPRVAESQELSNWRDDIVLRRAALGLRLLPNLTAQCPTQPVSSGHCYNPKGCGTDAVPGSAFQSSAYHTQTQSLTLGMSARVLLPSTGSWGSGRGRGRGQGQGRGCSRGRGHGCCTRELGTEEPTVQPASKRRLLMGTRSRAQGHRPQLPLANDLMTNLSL
Source text: as §1, §2, §3, §4, §5, §6, §7, §8

[5] = target: T5, full-length wild type KDM4B (Homo sapiens, UniProt O94953); test: as above; type: cell-based; details: n-octyl IOX1 10 μM
T5 construct: HEK293T cells were transfected with full-length wild type KDM4B-E or their respective mutants; host or cells: HEK293T
T5 sequence (O94953 whole entry): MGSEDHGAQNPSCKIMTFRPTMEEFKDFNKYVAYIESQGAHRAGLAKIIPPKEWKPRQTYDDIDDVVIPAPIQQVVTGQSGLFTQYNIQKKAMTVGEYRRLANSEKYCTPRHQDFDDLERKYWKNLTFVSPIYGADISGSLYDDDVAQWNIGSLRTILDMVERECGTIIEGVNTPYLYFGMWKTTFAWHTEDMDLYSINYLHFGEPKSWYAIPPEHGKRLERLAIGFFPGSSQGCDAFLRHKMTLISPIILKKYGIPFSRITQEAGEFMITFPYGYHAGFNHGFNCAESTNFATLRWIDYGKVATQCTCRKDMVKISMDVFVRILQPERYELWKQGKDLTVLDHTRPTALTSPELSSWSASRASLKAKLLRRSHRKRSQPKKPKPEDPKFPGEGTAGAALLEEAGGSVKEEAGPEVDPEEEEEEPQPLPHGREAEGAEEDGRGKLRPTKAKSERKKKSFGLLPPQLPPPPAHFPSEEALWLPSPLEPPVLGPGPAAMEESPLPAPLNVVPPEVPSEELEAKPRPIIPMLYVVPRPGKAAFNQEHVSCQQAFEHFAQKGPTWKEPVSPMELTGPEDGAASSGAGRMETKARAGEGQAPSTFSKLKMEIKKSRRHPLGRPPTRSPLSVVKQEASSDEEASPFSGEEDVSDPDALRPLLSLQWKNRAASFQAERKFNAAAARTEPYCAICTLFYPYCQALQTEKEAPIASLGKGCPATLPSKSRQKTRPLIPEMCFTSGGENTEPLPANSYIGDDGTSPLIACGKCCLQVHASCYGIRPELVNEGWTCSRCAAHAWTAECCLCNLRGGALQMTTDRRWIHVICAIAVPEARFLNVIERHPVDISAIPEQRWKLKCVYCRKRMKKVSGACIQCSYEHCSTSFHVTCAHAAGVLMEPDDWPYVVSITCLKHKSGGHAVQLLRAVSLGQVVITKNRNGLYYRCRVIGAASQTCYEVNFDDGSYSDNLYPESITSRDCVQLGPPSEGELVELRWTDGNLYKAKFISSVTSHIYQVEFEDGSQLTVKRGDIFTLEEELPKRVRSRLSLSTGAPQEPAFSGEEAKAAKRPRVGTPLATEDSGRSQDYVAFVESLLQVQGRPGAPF
Source text: as §1, §2, §3, §4, §5, §6, §7, §8

[6] = target: T6, full-length wild type KDM4D (Homo sapiens, UniProt Q6B0I6); test: as above; type: cell-based
T6 construct: HEK293T cells were transfected with full-length wild type KDM4B-E or their respective mutants; host or cells: HEK293T
T6 sequence (Q6B0I6 whole entry): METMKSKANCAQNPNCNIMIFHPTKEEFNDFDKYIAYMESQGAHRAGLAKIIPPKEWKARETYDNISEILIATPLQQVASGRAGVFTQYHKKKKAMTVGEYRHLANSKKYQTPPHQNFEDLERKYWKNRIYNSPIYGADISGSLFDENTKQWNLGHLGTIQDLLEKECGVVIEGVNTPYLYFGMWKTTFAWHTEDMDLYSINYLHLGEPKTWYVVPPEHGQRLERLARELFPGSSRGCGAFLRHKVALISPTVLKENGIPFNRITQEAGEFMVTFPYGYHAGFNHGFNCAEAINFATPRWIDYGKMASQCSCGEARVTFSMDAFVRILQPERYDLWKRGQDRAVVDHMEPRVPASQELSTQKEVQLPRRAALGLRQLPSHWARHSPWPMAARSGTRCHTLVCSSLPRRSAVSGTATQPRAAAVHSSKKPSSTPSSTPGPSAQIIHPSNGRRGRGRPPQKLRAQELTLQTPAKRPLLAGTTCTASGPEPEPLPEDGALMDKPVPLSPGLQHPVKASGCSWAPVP
Source text: as §1, §2, §3, §4, §5, §6, §7, §8

| Structure (SMILES) | inhibition of ALKBH2 [1] | inhibition of wild type KDM4A H3K9me3 demethylation [2] | inhibition of wild type KDM4A H3K9me3 demethylation ([2]; listed as IOX1) | inhibition of wild type KDM4C H3K9me3 demethylation [3] | inhibition of wild type KDM4E H3K9me3 demethylation [4] | inhibition of wild type KDM4B H3K9me3 demethylation [5] | inhibition of wild type KDM4D H3K9me3 demethylation [6] |
| --- | --- | --- | --- | --- | --- | --- | --- |
| CC(C)CC(NC(=O)C(=O)O)C(=O)O (stereo not shown) [compound 6, N-oxalyl leucine] | No inhibition |  |  |  |  |  |  |
| CCCCCCCCOC(=O)c1ccc(O)c2ncccc12 [n-octyl IOX1] |  | Inhibition | strongly inhibited | Dose-dependent inhibition; also recorded: significantly reduced | Dose-dependent inhibition; also recorded: significantly reduced | Dose-dependent inhibition; also recorded: significantly reduced | Dose-dependent inhibition; also recorded: significantly reduced |
